Source: PubChem BioAssay AID743339 (Broad Institute, 2014)
Calls of active or inactive are those of the source.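 How the source made its calls: active means activation curve crossing 200% at or below the highest valid dose tested for that sample; inconclusive means flat curve with activation between 30 and 70%, or poor fit; inactive means the rest, including signal falling instead of rising.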

Target: Leucyl-cystinyl aminopeptidase (Mus musculus) (UniProt Q8C129)
Experiment: activation of mouse IRAP aminopeptidase activity – biochemical, Leu-AMC fluorescence, cherry-picked samples, selectivity assay for ERAP1 modulator project, dose response (AID 743339)
Details: purified IRAP, Leu-AMC cleavage fluorescence, 1 h

Sequence of Leucyl-cystinyl aminopeptidase (Mus musculus) (Q8C129 whole entry, looked up): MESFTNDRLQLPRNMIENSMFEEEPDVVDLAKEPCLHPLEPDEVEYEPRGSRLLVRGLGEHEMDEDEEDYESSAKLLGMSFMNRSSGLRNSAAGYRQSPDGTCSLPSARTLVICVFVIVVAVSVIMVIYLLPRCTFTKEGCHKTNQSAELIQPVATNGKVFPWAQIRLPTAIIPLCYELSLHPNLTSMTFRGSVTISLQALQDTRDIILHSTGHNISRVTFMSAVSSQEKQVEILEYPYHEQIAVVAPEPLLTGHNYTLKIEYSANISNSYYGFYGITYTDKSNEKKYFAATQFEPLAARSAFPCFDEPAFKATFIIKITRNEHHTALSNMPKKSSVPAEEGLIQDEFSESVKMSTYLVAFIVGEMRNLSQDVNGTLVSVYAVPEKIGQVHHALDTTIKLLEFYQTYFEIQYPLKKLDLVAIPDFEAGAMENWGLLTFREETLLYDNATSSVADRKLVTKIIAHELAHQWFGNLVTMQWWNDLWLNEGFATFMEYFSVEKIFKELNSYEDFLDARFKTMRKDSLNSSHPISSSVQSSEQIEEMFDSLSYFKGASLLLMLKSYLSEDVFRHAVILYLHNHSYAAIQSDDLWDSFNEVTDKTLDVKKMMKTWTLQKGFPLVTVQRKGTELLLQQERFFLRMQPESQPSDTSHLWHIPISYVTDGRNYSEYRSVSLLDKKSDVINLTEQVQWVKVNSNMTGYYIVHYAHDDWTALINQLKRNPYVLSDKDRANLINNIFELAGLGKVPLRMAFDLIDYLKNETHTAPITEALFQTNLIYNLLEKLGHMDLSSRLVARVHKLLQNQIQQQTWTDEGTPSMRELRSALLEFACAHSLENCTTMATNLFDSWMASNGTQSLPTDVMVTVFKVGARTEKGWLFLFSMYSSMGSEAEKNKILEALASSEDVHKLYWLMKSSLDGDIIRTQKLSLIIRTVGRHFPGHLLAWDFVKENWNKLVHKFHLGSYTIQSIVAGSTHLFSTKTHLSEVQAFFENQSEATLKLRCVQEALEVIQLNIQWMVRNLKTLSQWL

Structure (SMILES)	activation (at 11 µM (top of the series))	other results
C[C@@H]1CCCCO[C@@H](CN(C)C)[C@@H](C)CN([C@@H](C)CO)C(=O)c2cc(NS(=O)(=O)c3ccc(F)cc3)ccc2O1	-0.129% (inactive)	
CN1[C@@H]2Cn3c(ccc(/C=C/c4ccccc4)c3=O)[C@H]1[C@@H](C(=O)NC1CCCC1)[C@@H]2CO		AC200: 983 nM
C[C@@H]1CCCCO[C@@H](CN(C)C(=O)CCC(F)(F)F)[C@@H](C)CN([C@@H](C)CO)C(=O)c2cc(NS(=O)(=O)c3ccccc3)ccc2O1		activation (at 2.6 µM (top of the series)): 11.6% (inactive)
COc1ccc(NC(=O)Nc2ccc3c(c2)C(=O)N([C@H](C)CO)C[C@@H](C)[C@H](CN(C)Cc2ccc(C(=O)O)cc2)OCCCC[C@@H](C)O3)cc1	10% (inactive)	
